Calls of active or inactive are those of the source.
Assays:
[1] = Tested for the ability to inhibit dephosphorylation of [3H]Ins(1,4,5)P3 of human erythrocyte membrane Ins(1,4,5)P3 5- phosphatase; assay type: functional
[2] = Inhibition of [3H]Ins(1,4,5)P3 phosphorylation by crude rat brain Ins(1,4,5)P3 3-kinase at 250 uM (Inactive); assay type: functional
[3] = Effective concentration required to mobilize [Ca2+] from intracellular stores using electrically permeabilised human neuroblastoma cells; assay type: functional, cell-based

Compound	Ki [1]	inhibition [2]	EC50 [3]
O=P(O)(O)OC1C(O)C(O)C(OP(=O)(O)O)C(OP(O)(O)=S)C1O (stereo in doubt)	6.8 µM		
OC1C(O)C(OP(O)(O)=S)C(OP(O)(O)=S)C(O)C1OP(O)(O)=S (stereo in doubt)	1.7 µM		
OC1C(O)C(OP(O)(O)=S)C(OP(O)(O)=S)C(O)C1OP(O)(O)=S (stereo in doubt; 2)	350 µM		
O=P(O)(O)OC1C(O)C(O)C(OP(=O)(O)O)C(OP(O)(O)=S)C1O (stereo in doubt; 4)	978 µM		
OC1C(O)C(OP(O)(O)=S)C(OP(O)(O)=S)C(O)C1OP(O)(O)=S (stereo in doubt; 8) [listing 1 of 2 here]	0.3 µM		
OC1C(O)C(OP(O)(O)=S)C(OP(O)(O)=S)C(O)C1OP(O)(O)=S (stereo in doubt; 8) [listing 2 of 2 here]		inactive	
O=P(O)(O)O[C@@H]1[C@H](O)[C@H](O)[C@@H](OP(=O)(O)O)[C@H](OP(=O)(O)O)[C@H]1O [INS(1,4,5)P3]	44 µM	inactive	0.12 µM

Reference: ChEMBL document CHEMBL1126372, “Synthesis of L-chiro-inositol 1,4,6-trisphosphorothioate, a potent and selective inhibitor of myo-inositol 1,4,5-trisphosphate 5-phosphatase” (Bioorg Med Chem Lett, 1992)
